Measured values published in the Kinase Knowledgebase extract (Sharma et al. 2016).
Values joined by “and” are separate entries in the source; they are usually repeats but may differ in a detail not shown here. Equal entries are not always repeated.

These molecules were tested against MAPK14 (human) (UniProt Q16539) (assay: Assessment of MAPK14 Kinase Activity). Settings: not given.
MAPK14 (human), sequence (Q16539 whole entry, looked up): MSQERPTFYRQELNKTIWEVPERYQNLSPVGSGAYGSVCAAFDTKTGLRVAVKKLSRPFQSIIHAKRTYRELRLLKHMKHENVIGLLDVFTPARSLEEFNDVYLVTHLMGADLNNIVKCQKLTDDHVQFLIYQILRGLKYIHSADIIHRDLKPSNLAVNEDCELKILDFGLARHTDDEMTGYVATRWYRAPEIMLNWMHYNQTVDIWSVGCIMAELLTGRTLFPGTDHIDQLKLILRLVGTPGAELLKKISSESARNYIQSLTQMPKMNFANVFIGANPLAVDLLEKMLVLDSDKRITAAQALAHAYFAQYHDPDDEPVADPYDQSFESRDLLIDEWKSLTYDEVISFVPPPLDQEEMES

With `CSc1nc(-c2ccc(F)cc2)c(-c2ccncc2)[nH]1` the IC50 was 0.069 µM and 0.07 µM.

The molecules below were run against CDK2 (UniProt P24941) (assay: Enzyme Assay). Settings: not given.

Point of comparison: `FC(F)(F)c1cnc(Nc2ccc3[nH]cnc3c2)nc1Nc1ccc2[nH]cnc2c1`, IC50 0.019 µM. Against it:
- Cc1ccc2ncc(C3=C(c4cn5c6c(cccc46)CN(C(=O)N4CCCCC4)CC5)C(=O)NC3=O)n2c1 — higher, > 20 µM

Same assay, conditions: concentration not given here

In the case of `Nc1n[nH]c(N)c1N=Nc1ccc(O)cc1`, the activity is reported as 31%.

In the case of `Nc1n[nH]c(N)c1N=Nc1ccc(O)cc1`, the inhibition is reported as 69%.

What follows are molecules tested against MAPK14 (human) (UniProt Q16539) (assay: Inhibition of MAPK14 Kinase Activity). Settings: concentration not given here.

With `Nc1n[nH]c(N)c1N=Nc1ccc(O)cc1` the activity was 82%.

Each molecule was assayed against MAPK14 (UniProt Q16539) (assay: Inhibition of MAPK14 Kinase Activity). Settings: not given.
MAPK14, sequence (Q16539 whole entry, looked up): as above

Point of comparison: `Cc1cccc(-n2nnnc2-c2ccc3c(c2)n(C)c(=O)n3C)c1`, IC50 14.4 µM. Against it:
- CCOc1cc2cnc(NC3CCNCC3)nc2n(C)c1=O — not separable, > 10 µM
- CN1N=C(c2ccccc2Cl)Oc2cnc(NC3CCOCC3)nc21 — 76-fold lower, 0.189 µM
- O=c1ncn2nc(Sc3cccc(F)c3)ccc2c1-c1c(Cl)cccc1Cl — 32-fold lower, 0.45 µM
- COc1ccc(Nc2nc(Nc3ccc4nc[nH]c4c3)ncc2C(F)(F)F)cc1 — not separable, > 1 µM
- FC(F)(F)c1cnc(Nc2ccc3nc[nH]c3c2)nc1Nc1ccccc1Cl — not separable, > 1 µM
- OCC(O)CNc1ncc2cc(Oc3ccc(F)cc3F)ccc2n1 (stereo unspecified) — lower, < 2 µM
- CSc1nc(-c2ccc(F)cc2)c(-c2ccncc2)[nH]1 — 23-fold lower, 0.63 µM
- Cc1nc(NC(=O)[C@H](N)[C@@H](C)O)sc1-c1ccnc(Nc2cccc([N+](=O)[O-])c2)n1 — higher, > 100 µM
- Cc1cccc(-c2n[nH]cc2-c2ccc(O)cc2)n1 — 460-fold lower, 0.031 µM
- NC(=O)c1cc(Cl)c(N2C(=O)NCc3nc(Sc4ccc(F)cc4)ccc32)c(Cl)c1 — 630-fold lower, 0.023 µM
- CCC(CO)(CO)Nc1ncc2cc(Oc3ccc(F)cc3F)ccc2n1 — lower, < 0.1 µM
- CC(C)Nc1ncc2cc(Oc3ccc(F)cc3F)ccc2n1 — lower, < 0.03 µM
- O=c1ncn2nc(Sc3ccccc3Br)ccc2c1-c1c(Cl)cccc1Cl — 58-fold lower, 0.25 µM
- CNc1nc(C)c(-c2ccnc(Nc3ccc(N4CCOCC4)cc3)n2)s1 — higher, > 100 µM
- CNC(=O)c1cc(Oc2ccc(NC(=O)Nc3ccc(Cl)c(C(F)(F)F)c3)c(F)c2)ccn1 — 600-fold lower, 0.024 µM
- CSc1nc(-c2ccnc(NC(C)c3ccccc3)c2)c(-c2ccc(F)cc2)n1C (stereo unspecified) — 1.9-fold higher, 27 µM
- FC(F)(F)c1cnc(Nc2ccc3[nH]cnc3c2)nc1Nc1ccc2[nH]cnc2c1 — not separable, > 1 µM
- CCOc1cc2cnc(NC3CCN(S(C)(=O)=O)CC3)nc2n(C)c1=O — 250-fold lower, 0.058 µM
- COc1cc2cnc(NC3CCOCC3)nc2n(C)c1=O — 9-fold lower, 1.6 µM
- C[C@@H](C(=O)O)N1CCC(c2cc3c(ccc(=O)n3-c3c(Cl)cccc3Cl)c(-c3ccc(F)cc3Cl)n2)CC1 — 11000-fold lower, 0.0013 µM
- O=C(c1ccc2cc[nH]c2c1)N1CCN(Cc2ccccc2)CC1 — 2.6-fold lower, 5.52 µM
- CN1N=C(c2ccccc2F)Oc2cnc(NC3CCOCC3)nc21 — 6.5-fold lower, 2.2 µM
- CC(C)(CO)Nc1nccc(CCc2c[nH]c3ccc(N)cc23)n1 — 9.6-fold lower, 1.5 µM
- Cc1cccc(Cl)c1Nc1nc2ccc(N3CCN[C@@H](C)C3)nc2n2cncc12 — 38-fold lower, 0.38 µM
- COc1cc2ncnc(Nc3cc(NC(=O)c4cccc(N(C)C)c4)ccc3C)c2cc1OC — 460-fold lower, 0.031 µM
- O=c1ncn2nc(Sc3ccc(F)cc3)ccc2c1-c1c(Cl)cccc1Cl — 140-fold lower, 0.1 µM
- OC1CCC(Nc2ncc3cc(Oc4ccc(F)cc4F)ccc3n2)CC1 (stereo unspecified) — lower, < 0.03 µM
- Cc1ccc(-n2nc(C3(C)CC3)cc2NC(=O)Nc2cnc(OC3CCN(C(=O)C4(C)CC4)CC3)c3ccccc23)cc1 — 420-fold lower, 0.034 µM
- Cc1ccc2ncc(C3=C(c4cn5c6c(cccc46)CN(C(=O)N4CCCCC4)CC5)C(=O)NC3=O)n2c1 — higher, > 20 µM
- CCn1c(=O)n(CC)c2cc(-c3[nH]c(-c4ccc(S(C)(=O)=O)cc4)nc3-c3ccc(F)cc3)ccc21 — 3.6-fold lower, 4 µM
- Cc1ccccc1C(=O)c1ccc(Nc2cncc3ccccc23)cc1Cl — 1100-fold lower, 0.0128 µM
- C[C@H](C(=O)O)N1CCC(c2cc3c(ccc(=O)n3-c3c(Cl)cccc3Cl)c(-c3ccc(F)cc3Cl)n2)CC1 — 4500-fold lower, 0.0032 µM
- Cc1nc(N)sc1-c1ccnc(Nc2ccc(N3CCOCC3)cc2)n1 — higher, > 100 µM
- CNc1nc(C)c(-c2ccnc(Nc3ccc(N4CCN(Cc5ccccc5)CC4)cc3)n2)s1 — higher, > 100 µM
- CS(=O)(=O)N1CCC(Nc2ncc3cc(Oc4ccc(F)cc4F)ccc3n2)CC1 — lower, < 0.001 µM
- COc1cc2ncnc(Nc3cccc(NC(=O)c4ccccc4)c3)c2cc1OC — 100-fold lower, 0.141 µM

Same assay, conditions: concentration not given here

Point of comparison: `NC(=O)c1cccc(Cl)c1N1C(=O)NCc2nc(Sc3ccc(F)cc3)ccc21`, inhibition 46%. Against it:
- Nc1n[nH]c(N)c1N=Nc1ccc(O)cc1 — lower, 18%
- O=C1NCc2nc(Sc3ccc(Sc4ccc(F)cc4)cc3)ccc2N1c1c(Cl)cccc1Cl — lower, -6%
